# Like-named read-outs stand apart in the source and are kept apart here.
# Assays:
# [1] = test system: tyrosinase; assay: Inhibiting tyrosinase (L-Dopa oxidation, dopachrome absorption at 492 nm); assay type: biochemical; conditions: series diluted sample, 0.1 U tyrosinase, 1 mM L-Dopa, 37° C., compared with blank control group (FIG. 1)
# Experimental: In this example, 90 μL of 0.1 U tyrosinase solution was added in to the wells of a 96-well plate. Then, 50 μL of a series diluted sample was added into the wells as an experimental group or as a blank control group, wherein said sample is MOPS, SB-12(N-Dodecyl-N,N-dimethyl-3-ammonio-1-propanesulfonate), ACES or Tris-HCl, and 0.1 M phosphate buffer and a substance lysis solution were used as blank tests for the experimental group and the blank control group, respectively. Each sample in the experiment was at least triplicated. The test plate was placed at 37° C., 400 rpm for 5 min to mix the contents thereof homogeneously. Then, the test plate was placed into a machine for an absorption examination (492 nm). An average of two detected data was obtained as a background value. The test plate was then taken out, and 60 μL of 1 mM L-Dopa solution was added into each well. […] At this time, an average of two detected data was obtained as a test value.
# In example 1, by using the tyrosinase inhibitor of the present invention, tyrosinase was inhibited to prevent melanin production. […] Accordingly, in this example, the absorption of the reaction at 492 nm was detected for examining the production of dopaquinone.
# The data in the figure was calculated by the following formula: […]
# [2] = test system: human epidermal melanocyte (HEM); assay: Inhibiting melanin in cell line model, human epidermal melanocyte (HEM); assay type: cell-based; conditions: 200 μg/mL in medium, 72 hours, compared with blank control group (FIG. 5)
# Experimental: (§1) In this example, the tyrosinase inhibitor of the present invention was used to inhibit melanin production in melanocytes. The cell lines used in this example are mouse melanoma (B16-F1; ATCC CRL-6323) and human epidermal melanocyte (HEM). After 72 hours, cells and cell culture medium were collected separately. Then, the collected cells were destroyed by ultrasonic for melanin examination.
# [3] = test system: B16-F1 cells; assay: Inhibiting melanin in cell line model, mouse melanoma B16-F1; assay type: cell-based; conditions: for inhibition of melanin production of mouse melanoma (microscopic image): 200 μg/ml, cultured 72 hours (FIG. 2); for inhibition at 200 µg/mL: Mus musculus, B16-F1, 200 μg/mL in medium
# Experimental: as §1
# [4] = 72 hours (FIG. 3), read-out: ability of inhibiting melanin production of B16-F1 cells
# [5] = 72 hours, cell culture medium (FIG. 4), read-out: ability of inhibiting melanin secretion of B16-F1 cells
SMILES,inhibition of tyrosinase activity [1],inhibition rate of melanin production of human epidermal melanocyte [2],inhibition of melanin production of mouse melanoma (microscopic image) [3],"inhibition at 200 µg/mL [3, 4]","inhibition at 200 µg/mL [3, 5]"
"NC(=O)CNCCS(=O)(=O)O [ACES, N-(2-Acetamido)-2-aminoethanesulfonic acid]",significantly inhibit the activity of tyrosinase,inhibition rate was increased,significantly inhibit,35%,38.9%
"O=S(=O)(O)CCCN1CCOCC1 [MOPS, 3-(N-Morpholino) propanesulfonic acid]",significantly inhibit the activity of tyrosinase,inhibition rate was increased,significantly inhibit,41.7%,42.3%
